Results published in article PMC4300089, “Structure-Guided Design of Selective Epac1 and Epac2 Agonists” (PLoS Biology, 2015).

Target: T1, Epac2^Δ280 (Mus musculus, UniProt Q9EQZ6)
T1 construct: made in house
T1 sequence (Q9EQZ6 281-993 isoform Q9EQZ6-3): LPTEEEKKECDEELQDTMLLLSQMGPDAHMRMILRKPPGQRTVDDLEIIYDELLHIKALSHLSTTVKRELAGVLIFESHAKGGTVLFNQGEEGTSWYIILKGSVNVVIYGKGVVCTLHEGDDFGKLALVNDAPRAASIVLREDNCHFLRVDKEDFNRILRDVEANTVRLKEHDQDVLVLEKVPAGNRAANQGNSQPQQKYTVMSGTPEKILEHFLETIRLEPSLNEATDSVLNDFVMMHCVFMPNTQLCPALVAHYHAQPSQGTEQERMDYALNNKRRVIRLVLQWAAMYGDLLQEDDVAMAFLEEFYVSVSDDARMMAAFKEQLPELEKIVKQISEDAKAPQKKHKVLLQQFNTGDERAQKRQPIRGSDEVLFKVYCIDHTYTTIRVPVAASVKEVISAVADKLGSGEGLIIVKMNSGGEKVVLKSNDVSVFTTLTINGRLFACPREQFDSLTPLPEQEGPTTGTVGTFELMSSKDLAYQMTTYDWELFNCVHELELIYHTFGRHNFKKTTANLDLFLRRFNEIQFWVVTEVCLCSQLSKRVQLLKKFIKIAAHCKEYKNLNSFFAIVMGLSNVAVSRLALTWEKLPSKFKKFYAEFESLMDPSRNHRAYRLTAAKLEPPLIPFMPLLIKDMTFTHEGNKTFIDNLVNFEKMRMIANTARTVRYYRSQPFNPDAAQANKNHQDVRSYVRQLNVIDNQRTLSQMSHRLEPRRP
Assay: Epac activation assay (Rap1B•mGDP fluorescence nucleotide exchange), Epac2^Δ280
Format: biochemical
Conditions: for AC50 / Rel. kmax: Epac2^Δ280; for Rel. kmax: maximal activity relative to cAMP
Method: Murine Epac2 was used as all previous structural studies were performed with it.
The activity of Epac was determined by a fluorescence assay. […] The fluorescence intensity of Rap1B•mGDP is approximately twice that of free mGDP, and thus, nucleotide exchange can be observed as a decay in fluorescence upon the addition of excess unlabeled GDP.

Row | Molecule | AC50 [µM] | Rel. kmax | activation (Epac2)
1 | 8-PIA-cAMP [L-019] | 19 | 3.8 | 
2 | Nc1ncnc2c1nc(Cl)n2[C@@H]1O[C@@H]2COP(=O)(O)O[C@H]2[C@H]1Cl [D-006, 8,2′-DCl-cAMP] | 14 | 0.7 | 
3 | CO[C@@H]1[C@@H]2OP(=O)(O)OC[C@H]2O[C@H]1n1c(O)nc2c(N)ncnc21 [D-010, 8-OH-2′-O-Me-cAMP] | 6.8 | 0.5 | 
4 | Nc1ncnc2c1nc(SCc1ccccc1)n2[C@@H]1O[C@@H]2COP(=O)(O)O[C@H]2[C@H]1F [D-011, 8-BnT-2′-F-cAMP] | 2.9 | 1.6 | 
5 | CO[C@@H]1[C@@H]2OP(=O)(O)OC[C@H]2O[C@H]1n1c([Se]Cc2ccccc2)nc2c(N)ncnc21 [D-013, 8-BnSe-2′-O-Me-cAMP] | 3.6 | 2.3 | 
6 | Nc1ncnc2c1nc(N)n2[C@@H]1O[C@@H]2COP(=O)(O)O[C@H]2[C@H]1O [L-003, 8-NH2-cAMP] | 0.2 | 0.7 | 
7 | [N-]=[N+]=Nc1nc2c(N)ncnc2n1[C@@H]1O[C@@H]2COP(=O)(O)O[C@H]2[C@H]1O [L-004, 8-N3-cAMP] | 0.2 | 0.7 | 
8 | NCCNc1nc2c(N)ncnc2n1[C@@H]1O[C@@H]2COP(=O)(O)O[C@H]2[C@H]1O [L-006, 8-AEA-cAMP] | 1.6 | 0.5 | 
9 | Nc1ncnc2c1nc(NCCO)n2[C@@H]1O[C@@H]2COP(=O)(O)O[C@H]2[C@H]1O [L-007, 8-OHEA-cAMP] | 2.6 | 1.0 | 
10 | Nc1ncnc2c1nc(NCCCCO)n2[C@@H]1O[C@@H]2COP(=O)(O)O[C@H]2[C@H]1O [L-008, 8-OHBuA-cAMP] | 2.6 | 1.6 | 
11 | CCCCCCNc1nc2c(N)ncnc2n1[C@@H]1O[C@@H]2COP(=O)(O)OC2[C@@H]1O (stereo partly drawn) [L-009, 8-HA-cAMP] | 2.5 | 2.0 | 
12 | NCCCCCCNc1nc2c(N)ncnc2n1[C@@H]1O[C@@H]2COP(=O)(O)O[C@H]2[C@H]1O [L-010, 8-AHA-cAMP] | 1.2 | 1.8 | 
13 | C=CCNc1nc2c(N)ncnc2n1[C@@H]1O[C@@H]2COP(=O)(O)O[C@H]2[C@H]1O [L-011, 8-AllA-cAMP] | 1.9 | 1.5 | 
14 | C[C@H](O)CNc1nc2c(N)ncnc2n1[C@@H]1O[C@@H]2COP(=O)(O)O[C@H]2[C@H]1O [L-012, 8-(S-2-OHPrA)-cAMP] | 8 | 0.5 | 
15 | CN(C)c1nc2c(N)ncnc2n1[C@@H]1O[C@@H]2COP(=O)(O)O[C@H]2[C@H]1O [L-015, 8-DMeA-cAMP] | 1.4 | 3.6 | 
16 | CCN(CC)c1nc2c(N)ncnc2n1[C@@H]1O[C@@H]2COP(=O)(O)O[C@H]2[C@H]1O [L-016, 8-DEA-cAMP] | 9 | 5.1 | 
17 | Nc1ncnc2c1nc(N1CCCC1)n2[C@@H]1O[C@@H]2COP(=O)(O)O[C@H]2[C@H]1O [L-017, 8-Pyr-cAMP] | 3.9 | 4.4 | 
18 | Nc1ncnc2c1nc(N1CCOCC1)n2[C@@H]1O[C@@H]2COP(=O)(O)O[C@H]2[C@H]1O [L-020, 8-Morph-cAMP] | 18 | 3.8 | 
19 | COc1nc2c(N)ncnc2n1[C@@H]1O[C@@H]2COP(=O)(O)O[C@H]2[C@H]1O [L-022, 8-MeO-cAMP] | 0.6 | 2.0 | 
20 | Nc1ncnc2c1nc(OCc1ccccc1)n2[C@@H]1O[C@@H]2COP(=O)(O)O[C@H]2[C@H]1O [L-023, 8-BnO-cAMP] | 1.3 | 1.6 | 
21 | CSc1nc2c(N)ncnc2n1[C@@H]1O[C@@H]2COP(=O)(O)O[C@H]2[C@H]1O [L-024, 8-MeT-cAMP] | 0.14 | 2.0 | 
22 | C[Se]c1nc2c(N)ncnc2n1[C@@H]1O[C@@H]2COP(=O)(O)O[C@H]2[C@H]1O [L-027, 8-MeSe-cAMP] | 0.18 | 1.5 | 
23 | Nc1ncnc2c1nc([Se]Cc1ccccc1)n2[C@@H]1O[C@@H]2COP(=O)(O)O[C@H]2[C@H]1O [L-028, 8-BnSe-cAMP] | 0.03 | 1.7 | 
24 | O=P1(O)OCC2OC(n3cnc4c(NCc5ccccc5)ncnc43)C(O)C2O1 (stereo not drawn) [N-001, N^6-Bn-cAMP] | 1.1 | 0.3 | 
25 | O=C(Nc1ncnc2c1ncn2[C@@H]1O[C@@H]2COP(=O)(O)O[C@H]2[C@H]1O)c1ccccc1 [N-002, N^6-Bnz-cAMP] | 2.9 | 0.1 | inability to activate Epac2

Row | Molecule | AC50 [µM] | Rel. kmax | activation (Epac2)
26 | O=P1(O)OC[C@H]2O[C@@H](n3cnc4c(Nc5ccccc5)ncnc43)[C@H](O)[C@@H]2O1 [N-003, N^6-Phe-cAMP] | 0.3 | 0.6 | 
27 | Nc1ncnc2c1ncn2[C@@H]1O[C@@H]2COP(O)(=S)O[C@H]2[C@H]1O (stereo partly drawn) [R-000, Rp-cAMPS] | 10 | 0.2 | 
28 | Nc1ncnc2c1nc(Br)n2[C@H]1C[C@@H]2O[P@@](O)(=S)OC[C@H]2O1 [S-011, Sp-8-Br-2′dcAMPS] | 9 | 0.8 | 
29 | Nc1ncnc2c1nc(Cl)n2[C@@H]1O[C@@H]2COP(O)(=S)O[C@@H]2C1O (stereo partly drawn) [S-020, Sp-8-Cl-cAMPS] | 0.4 | 3.8 | 
30 | Nc1ncnc2c1nc(Cl)n2[C@@H]1O[C@@H]2CO[P@](O)(=S)O[C@H]2[C@H]1Cl [S-021] | 12 | 0.5 | 
31 | CNc1nc2c(N)ncnc2n1[C@@H]1O[C@@H]2CO[P@](O)(=S)O[C@H]2[C@H]1F [S-032, Sp-8-MeA-2′-F-cAMPS] | 9.5 | 3.9 | 
32 | CNc1nc2c(N)ncnc2n1[C@@H]1O[C@@H]2CO[P@](O)(=S)O[C@H]2[C@H]1OC [S-034, Sp-8-MeA-2′-O-Me-cAMPS] | 20 | 0.7 | 
33 | CCNc1nc2c(N)ncnc2n1[C@@H]1O[C@@H]2CO[P@](O)(=S)O[C@H]2[C@H]1O [S-040, Sp-8-EA-cAMPS] | 1.9 | 5.4 | 
34 | CC(C)Nc1nc2c(N)ncnc2n1[C@@H]1O[C@@H]2CO[P@](O)(=S)O[C@H]2[C@H]1O [S-050, Sp-8-iPrA-cAMPS] | 9 | 1.4 | 
35 | CN(C)c1nc2c(N)ncnc2n1[C@@H]1O[C@@H]2CO[P@](O)(=S)O[C@H]2[C@H]1O [S-070, Sp-8-DMeA-cAMPS] | 2.1 | 9.3 | 
36 | CCN(C)c1nc2c(N)ncnc2n1[C@@H]1O[C@@H]2CO[P@](O)(=S)O[C@H]2[C@H]1O [S-080, Sp-8-EMeA-cAMPS] | 1.8 | 7.6 | 
37 | CCN(CC)c1nc2c(N)ncnc2n1[C@@H]1O[C@@H]2CO[P@](O)(=S)O[C@H]2[C@H]1O [S-090, Sp-8-DEA-cAMPS] | 10 | 4.1 | 
38 | CC(C)N(C)c1nc2c(N)ncnc2n1[C@@H]1O[C@@H]2CO[P@](O)(=S)O[C@H]2[C@H]1O [S-100, Sp-8-iPrMeA-cAMPS] | 7 | 4.5 | 
39 | Nc1ncnc2c1nc(N1CCCCC1)n2[C@@H]1O[C@@H]2CO[P@](O)(=S)O[C@H]2[C@H]1O [S-110, Sp-8-PIP-cAMPS] | 9.5 | 3.7 | 
40 | COc1nc2c(N)ncnc2n1[C@@H]1O[C@@H]2CO[P@](O)(=S)O[C@H]2[C@H]1O [S-140, Sp-8-MeO-cAMPS] | 0.7 | 7.3 | 
41 | Nc1ncnc2c1nc(OCc1ccccc1)n2[C@@H]1O[C@@H]2CO[P@](O)(=S)O[C@H]2[C@H]1O [S-150, Sp-8-BnO-cAMPS] | 1.3 | 4.8 | 
42 | CSc1nc2c(N)ncnc2n1[C@@H]1O[C@@H]2CO[P@](O)(=S)O[C@H]2[C@H]1O [S-160, Sp-8-MeT-cAMPS] | 0.3 | 7.4 | 
43 | CSc1nc2c(N)ncnc2n1[C@@H]1O[C@@H]2CO[P@](O)(=S)O[C@H]2[C@H]1F [S-170, Sp-8-MeT-2′-F-cAMPS] | 6.9 | 2.8 | 
44 | CO[C@@H]1[C@@H]2O[P@@](O)(=S)OC[C@H]2O[C@H]1n1c(SC)nc2c(N)ncnc21 [S-180, Sp-8-MeT-2′-O-Me-cAMPS] | 3.7 | 3.2 | 
45 | Nc1ncnc2c1nc(Sc1ccc(O)cc1)n2[C@@H]1O[C@@H]2CO[P@](O)(=S)O[C@H]2[C@H]1O [S-200, Sp-8-pOHPT-cAMPS] | 0.07 | 1.2 | 
46 | Nc1ncnc2c1nc(Sc1ccc(O)cc1)n2[C@@H]1O[C@@H]2CO[P@](O)(=S)O[C@H]2[C@H]1F [S-201, Sp-8-pOHPT-2′-F-cAMPS] | 1.6 | 1.0 | 
47 | CO[C@@H]1[C@@H]2O[P@@](O)(=S)OC[C@H]2O[C@H]1n1c(Sc2ccc(O)cc2)nc2c(N)ncnc21 [S-202, Sp-8-pOHPT-2′-O-Me-cAMPS] | 1.6 | 1.4 | 
48 | CC(C)(C)c1ccc(CSc2nc3c(N)ncnc3n2[C@@H]2O[C@@H]3CO[P@](O)(=S)O[C@H]3[C@H]2O)cc1 [S-240, Sp-8-ptBuBnT-cAMPS] | 0.1 | 5.0 | 
49 | COc1ccc(CSc2nc3c(N)ncnc3n2[C@@H]2O[C@@H]3CO[P@](O)(=S)O[C@H]3[C@H]2O)cc1 [S-250, Sp-8-pMeOBnT-cAMPS] | 0.11 | 5.4 | 
